Test results reported in US9393271B2, “GHRH agonists for islet cell transplantation and function and the treatment of diabetes” (UNIVERSITY OF MIAMI, priority 2012, dated 2016).
Non-standard residues stand in square brackets, D forms with d. Residues, ends and D or L forms follow the SMILES beside them. *: point of attachment. Phe(F5) = N[C@@H](Cc1c(F)c(F)c(F)c(F)c1F)C(=O)O; Desaminotyrosyl = O=C(CCc1ccc(O)cc1)*; NMeY = CN[C@@H](Cc1ccc(O)cc1)C(=O)O; Nle = CCCC[C@H](N)C(=O)O; Orn = NCCC[C@H](N)C(=O)O; dAbu = CC[C@@H](N)C(=O)O; Abu = CC[C@H](N)C(=O)O; GABA = NCCCC(=O)O

molecular target: T1, GHRH receptor (human pituitary membrane homogenates) (Homo sapiens, UniProt Q02643); assay: GHRH receptor binding, ligand competition with 125I-labeled JV-1-42 (Table 7); parameters: Normal human pituitaries were purchased from the National Hormone and Peptide Program; tissue National Hormone and Peptide Program (A. F. Parlow, Harbor-UCLA Medical Center, Torrance, Calif.); host or cells: normal human pituitary, membrane fraction / homogenate; details: JI-38 = 1
T1 sequence (Q02643 23-423): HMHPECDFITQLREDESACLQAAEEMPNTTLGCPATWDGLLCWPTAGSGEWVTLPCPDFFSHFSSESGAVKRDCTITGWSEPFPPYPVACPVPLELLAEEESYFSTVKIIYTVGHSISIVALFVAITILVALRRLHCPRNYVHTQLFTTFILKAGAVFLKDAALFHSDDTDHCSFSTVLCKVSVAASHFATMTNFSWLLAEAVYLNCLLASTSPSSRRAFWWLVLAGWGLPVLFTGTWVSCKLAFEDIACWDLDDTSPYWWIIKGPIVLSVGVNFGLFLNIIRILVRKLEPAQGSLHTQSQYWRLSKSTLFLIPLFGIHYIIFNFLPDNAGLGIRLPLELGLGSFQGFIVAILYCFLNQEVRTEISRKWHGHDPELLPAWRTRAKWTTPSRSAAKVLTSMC

Relative affinitiy (Binding potency) vs JI-38	Compound
4.03	CCCC[C@H](NC(=O)[C@@H](NC(=O)[C@H](CC(=O)O)NC(=O)[C@H](CCC(N)=O)NC(=O)[C@H](CC(C)C)NC(=O)[C@H](CC(C)C)NC(=O)[C@H](CCCN)NC(=O)[C@H](CCCNC(=N)N)NC(=O)[C@H](C)NC(=O)[C@H](CO)NC(=O)[C@H](CC(C)C)NC(=O)[C@H](CCC(N)=O)NC(=O)[C@H](CC)NC(=O)[C@H](CC(C)C)NC(=O)[C@@H](NC(=O)[C@H](CCCN)NC(=O)[C@H](CCCNC(=N)N)NC(=O)[C@H](Cc1ccc(O)cc1)NC(=O)[C@H](CO)NC(=O)[C@H](CCC(N)=O)NC(=O)[C@@H](NC(=O)[C@H](Cc1ccccc1)NC(=O)[C@@H](NC(=O)[C@H](C)NC(=O)[C@H](CC(=O)O)NC(=O)[C@H](C)NC(=O)[C@H](Cc1ccc(O)cc1)NC)[C@@H](C)CC)[C@@H](C)O)C(C)C)[C@@H](C)CC)C(=O)N[C@@H](CO)C(=O)N[C@@H](CCCNC(=N)N)C(=O)NC [Peptide P-27405, [N—Me-Tyr^1, Gln^8, Orn^12, Abu^15, Orn^21, Nle^27]hGHRH(1-29)NH—CH3] (H-[NMeY]ADAIFTQSYR[Orn]VL[Abu]QLSAR[Orn]LLQDI[Nle]SR-NHMe)
2.79	CCCC[C@H](NC(=O)[C@@H](NC(=O)[C@H](CC(=O)O)NC(=O)[C@H](CCC(N)=O)NC(=O)[C@H](CC(C)C)NC(=O)[C@H](CC(C)C)NC(=O)[C@H](CCCN)NC(=O)[C@H](CCCNC(=N)N)NC(=O)[C@H](C)NC(=O)[C@H](CO)NC(=O)[C@H](CC(C)C)NC(=O)[C@H](CCC(N)=O)NC(=O)[C@H](CC)NC(=O)[C@H](CC(C)C)NC(=O)[C@@H](NC(=O)[C@H](CCCN)NC(=O)[C@H](CCCNC(=N)N)NC(=O)[C@H](Cc1ccc(O)cc1)NC(=O)[C@H](CO)NC(=O)[C@H](CC(N)=O)NC(=O)[C@@H](NC(=O)[C@H](Cc1c(F)c(F)c(F)c(F)c1F)NC(=O)[C@@H](NC(=O)[C@H](C)NC(=O)[C@H](CC(=O)O)NC(=O)[C@@H](C)NC(=O)[C@H](Cc1ccc(O)cc1)NC)[C@@H](C)CC)[C@@H](C)O)C(C)C)[C@@H](C)CC)C(=O)N[C@@H](CO)C(=O)N[C@@H](CCCNC(=N)N)C(=O)NCCCC(=O)NC [Peptide P-27414, [N—Me-Tyr^1, D-Ala^2, Fpa5^6, Orn^12, Abu^15, Orn^21, Nle^27, Gab^30]hGHRH(1-30)NH—CH3] (H-[NMeY][dA]DAI[Phe(F5)]TNSYR[Orn]VL[Abu]QLSAR[Orn]LLQDI[Nle]SR[GABA]-NHMe)
3.02	CCCC[C@H](NC(=O)[C@@H](NC(=O)[C@H](CC(=O)O)NC(=O)[C@H](CCC(N)=O)NC(=O)[C@H](CC(C)C)NC(=O)[C@H](CC(C)C)NC(=O)[C@H](CCCN)NC(=O)[C@H](CCCNC(=N)N)NC(=O)[C@H](C)NC(=O)[C@H](CO)NC(=O)[C@H](CC(C)C)NC(=O)[C@H](CCC(N)=O)NC(=O)[C@H](CC)NC(=O)[C@H](CC(C)C)NC(=O)[C@@H](NC(=O)[C@H](CCCN)NC(=O)[C@H](CCCNC(=N)N)NC(=O)[C@H](Cc1ccc(O)cc1)NC(=O)[C@H](CO)NC(=O)[C@H](CC(N)=O)NC(=O)[C@@H](NC(=O)[C@H](Cc1ccccc1)NC(=O)[C@@H](NC(=O)[C@H](C)NC(=O)[C@H](CC(=O)O)NC(=O)[C@@H](CC)NC(=O)CCc1ccc(O)cc1)[C@@H](C)CC)[C@@H](C)O)C(C)C)[C@@H](C)CC)C(=O)N[C@@H](CO)C(=O)N[C@@H](CCCNC(=N)N)C(=O)NCCCC(N)=O [Peptide P-25504, [Dat^1, D-Abu^2, Orn^12, Abu^15, Orn^21, Nle^27, Gab^30]hGHRH(1-30)NH2] (Desaminotyrosyl-[dAbu]DAIFTNSYR[Orn]VL[Abu]QLSAR[Orn]LLQDI[Nle]SR[GABA]-NH2)
